Reference: patent publication US10370644B2, “Method for making human pluripotent suspension cultures and cells derived therefrom” (Janssen Biotech, Inc., priority 2012, dated 2019)

Columns and labels:
Assay type in all cases: cell-based
[1] = test system: Clusters from pluripotent human embryonic stem cell line H1 (NIH code: WA01); test: Efficiency of definitive endoderm generation: percentage of cells expressing CXCR4 (CD184), CD99 and CD9 by flow cytometry after 3 days of differentiation in suspension culture; details: for CD9 (% by FACS) / CD99 (% by FACS) / CD184 (% by FACS): end of day three
Method: Clusters from pluripotent human embryonic stem cell line H1 (NIH code: […] MCDB-131 medium supplemented in this manner will be referred to as “stage 1 basal medium” for the purposes of this application. […] No. 12/494,789; incorporated herein by reference in its entirety) and 100 ng/ml GDF-8 (Catalog #120-00, Peprotech), or 3 μM MCX only, or 20 ng/ml WNT-3A (Catalog #1324-WN-002, R&D Systems, MN) plus 100 ng/ml Activin A (Catalog #338-AC, R&D Systems, MN) or 20 ng/ml WNT-3A only. On day two, cells were transferred to fresh stage 1 basal media supplemented with either 100 ng/ml GDF8 or 100 ng/ml Activin A. Samples were collected for flow cytometry, PCR and Western Blot analysis at various time points ranging from time zero (immediately before addition of basal media plus supplements) up to 72 hours after beginning differentiation. The efficiency with which definitive endoderm was generated was determined after 3 days of differentiation under each condition by measuring the percentage of cells expressing the cells surface markers CXCR4, CD99 and CD9 using flow cytometry. […] Clusters from pluripotent human embryonic stem cell line H1 (NIH code: WA01) were seeded at cell densities ranging from 0.25×10^6 to 2×10^6 cells/ml in Erlenmeyer/shaker flasks or spinner flasks in stage 1 basal media as described in Example 9. Clusters were treated with stage 1 basal medium containing 1.5, 2, 3, or 4 μM MCX on day one of differentiation and with fresh stage 1 basal medium containing 100 ng/ml GDF-8 on day 2. No media exchange was performed on day three. Samples were collected for flow cytometry and PCR analysis at the end of day three of differentiation. The efficiency with which definitive endoderm was generated was then determined by measuring the percentage of cells expressing the cells surface markers CXCR4, CD99 and CD9 using flow cytometry. […] However, by increasing BSA concentrations, the effects of MCX can be modulated such that concentrations≥4 micromolar may be used. Conversely, concentrations≤1.5 micromolar may be used to generate definitive endoderm when used with lower BSA concentrations. The example was carried out to determine whether GlutaMAX™ supplementation was required for generation of definitive endoderm by suspending clusters in stage 1 basal media (described in Example 9) plus or minus GlutaMAX™, which was supplemented with 3 μM MCX on day one of differentiation and with fresh stage 1 basal medium containing 100 ng/ml GDF-8 on day 2. No media exchange was performed on day three. Samples were collected for flow cytometry and PCR analysis at the end of day three of differentiation. The efficiency with which definitive endoderm was generated was determined under each condition by measuring the percentage of cells expressing the cells surface markers CXCR4, CD99 and CD9 using flow cytometry. Clusters from pluripotent human embryonic stem cell line H1 (NIH code: […] Clusters were treated with stage 1 basal medium containing MCX and GDF-8 as described in Example 12. Samples were collected for flow cytometry at the end of day three of differentiation. Phase contrast images were also captured on each day of differentiation. The efficiency with which definitive endoderm was generated was then determined by measuring the percentage of cells expressing the cells surface markers CXCR4, CD99 and CD9 using flow cytometry. The data is shown in FACS plots in FIGS. 44 A&B and summarized in Table 17. […] In addition, it was observed that differences in bicarbonate levels correlated with differences in cluster morphologies at the end of stage 1, as observed by phase contrast microscopy (FIGS. 44 C&D). Also, cells differentiated under high bicarbonate levels were noted to form looser clusters than cells differentiated in 2.43 g/L of bicarbonate.

[2] = test system: Clusters from pluripotent human embryonic stem cell line H1 (NIH code: WA01); test: Cell viability of clusters treated with MCX in suspension culture; details: MCX at concentrations above 4 μM
Method: Clusters from pluripotent human embryonic stem cell line H1 (NIH code: WA01) were seeded at cell densities ranging from 0.25×10^6 to 2×10^6 cells/ml in Erlenmeyer/shaker flasks or spinner flasks in stage 1 basal media as described in Example 9. Clusters were treated with stage 1 basal medium containing 1.5, 2, 3, or 4 μM MCX on day one of differentiation and with fresh stage 1 basal medium containing 100 ng/ml GDF-8 on day 2. No media exchange was performed on day three. Samples were collected for flow cytometry and PCR analysis at the end of day three of differentiation.
The efficiency with which definitive endoderm was generated was then determined by measuring the percentage of cells expressing the cells surface markers CXCR4, CD99 and CD9 using flow cytometry. […] However, by increasing BSA concentrations, the effects of MCX can be modulated such that concentrations≥4 micromolar may be used. Conversely, concentrations≤1.5 micromolar may be used to generate definitive endoderm when used with lower BSA concentrations.

[3] = test system: Clusters from pluripotent human embryonic stem cell line H1 (NIH code: WA01); test: EdU incorporation and cell cycle stage (G0/G1, S, G2/M) by flow cytometry during definitive endoderm differentiation; details: for cells in G0/G1 of the cell cycle: 48 hours after initiation of differentiation; for percentage of cells with EdU incorporation (mean of GDF8, WNT-3A, WNT-3A+Activin A and neat medium) / average decrease in the number of cells in G0/G1 (GDF8, WNT-3A, WNT-3A+Activin A and neat medium): six hours after the initiation of differentiation; for percentage of cells with EdU incorporation (mean of GDF8, WNT-3A, WNT-3A+Activin A and neat medium): SD ±1.2; for average decrease in the number of cells in G0/G1 (GDF8, WNT-3A, WNT-3A+Activin A and neat medium): Standard Deviation ±5%
Method: (§1) Clusters from pluripotent human embryonic stem cell line H1 (NIH code: WA01) were seeded at 0.5×10^6 cells/ml in Erlenmeyer shaker flasks in MCDB-131 medium containing […] sodium bicarbonate and 5.5 mM glucose (Catalog #A13051 DJ, Invitrogen, CA), which was supplemented with 2% fatty acid free BSA (Catalog #68700, Proliant, Iowa), 1× GlutaMAX™ (Catalog #35050-079, Invitrogen, CA), an additional 2.5 mM glucose (Catalog #G8769, Sigma) and ITS-X at 1:50,000 stock concentration (Catalog #51500056, Invitrogen, CA). MCDB-131 medium supplemented in this manner will be referred to as stage 1 basal medium or “Neat” medium for the purposes of this example. The GSK3B inhibitor, 14-Prop-2-en-1-yl-3,5,7,14,17,23,27-heptaazatetracyclo[19.3.1.1-2,6˜.1˜8,12˜]heptacosa-1(25),2(27),3,5,8(26),9,11,21,23-nonaen-16-one, U.S. patent application Ser. No. 12/494,789; incorporated herein by reference in its entirety will be referred to as “MCX”.
(§2) Clusters were treated on the first day of differentiation with one of six conditions: (1) Neat, (2) 3 μM MCX plus 100 ng/ml GDF-8 (Catalog #120-00, Peprotech), (3) 3 μM MCX only, (4) 100 ng/ml GDF-8 only, (5) 20 ng/ml WNT-3A (Catalog #1324-WN-002, R&D Systems, MN) plus 100 ng/ml Activin A (Catalog #338-AC, R&D Systems, MN), or (6) 20 ng/ml WNT-3A only.
(§3) Media in each of the conditions was changed at 24 and 48 hours after the initiation of differentiation. At these times, cells in conditions 1, 2, 3, and 4 were changed to fresh stage 1 basal media supplemented with 100 ng/ml GDF8 while cells in conditions 5 and 6 were changed to fresh stage 1 basal media supplemented with 100 ng/ml Activin A.
One hour prior to initiation of differentiation, and 5, 23, 29, 47, or 71 hours after the initiation of differentiation (referred to as “Time 0”), suspension samples were transferred to a non-tissue culture treated six well dish and incubated with EdU (Click-iT® EdU Kit, Life Technologies Corporation, Carlsbad, Calif.) for one hour. The EdU incubated cells were then assessed by flow cytometry at times 0, 6, 24, 30, 48, or 72 hours after initiation of differentiation to measure the percentage of cells in G0/G1, S, or G2/M stages of the cell cycle (FIGS. 81-87).

[4] = test system: Clusters from pluripotent human embryonic stem cell line H1 (NIH code: WA01); test: qRT-PCR gene expression, fold versus undifferentiated cells, 0-72 hours of differentiation (Example 15)
Method: as §1, §2, §3
However, consistent with the differences in cell cycle observed through the process of forming definitive endoderm, intermediate differences in gene expression were seen. […] (FIGS. 88c and e).

[5] = 2.43 g/L Sodium bicarbonate in modified stage 1 basal media, MCX and GDF-8
[6] = 3.64 g/L Sodium bicarbonate in stage 1 basal media, MCX and GDF-8
[7] = 1.5 μM MCX on day one, 100 ng/ml GDF-8 on day 2
[8] = 2 μM MCX on day one, 100 ng/ml GDF-8 on day 2
[9] = 3 μM MCX on day one, 100 ng/ml GDF-8 on day 2
[10] = 4 μM MCX on day one, 100 ng/ml GDF-8 on day 2
[11] = 6 hours following initiation of differentiation

**Q.** `O=C([O-])O.[Na+]` [Sodium bicarbonate] was tested. Which “CD9 (% by FACS)” value [1, 5] did it give?
**A.** 12.3%

**Q.** And the “CD99 (% by FACS)” value [1, 5]?
**A.** 66.7%

**Q.** What about the “cells expressing CXCR4, on average” value ([1]; 2.43 g/L sodium bicarbonate) of the same molecule?
**A.** 87.4%

**Q.** And the “CD9 (% by FACS)” value [1, 6]?
**A.** 5.5%

**Q.** And the “CD99 (% by FACS)” value [1, 6]?
**A.** 92.7%

**Q.** And the “cells expressing CXCR4, on average” value ([1]; 3.64 g/L sodium bicarbonate)?
**A.** 97.35%

**Q.** With `C=CCN1CC(=O)NCCCc2cncc(c2)-c2ncnc(n2)Nc2cccc(c2)C1` [MCX, 14-Prop-2-en-1-yl-3,5,7,14,17,23,27-heptaazatetracyclo[19.3.1.1˜2,6-˜0.1˜8,12.˜]heptacosa-1(25),2(27),3,5,8(26),9,11,21,23-non-aen-16-one] as the molecule, how does the “CD9 (% by FACS)” value [1, 7] read?
**A.** 68.4%

**Q.** What about the “CD184 (% by FACS)” value [1, 7] of the same molecule?
**A.** 67.8%

**Q.** What about the “CD9 (% by FACS)” value [1, 8] of the same molecule?
**A.** 0.2%

**Q.** And the “CD184 (% by FACS)” value [1, 8]?
**A.** 96.5%

**Q.** What about the “definitive endoderm level versus 3 μM MCX plus 100 ng/ml GDF-8 or 20 ng/ml WNT-3A plus 100 ng/ml Activin A on day one” value ([1]; 3 μM MCX in the absence of a TGF-β family member on day one) of the same molecule?
**A.** comparable

**Q.** What about the “CD9 (% by FACS)” value [1, 9] of the same molecule?
**A.** 0.2%

**Q.** What about the “CD184 (% by FACS)” value [1, 9] of the same molecule?
**A.** 96.0%

**Q.** And the “CD9 (% by FACS)” value [1, 10]?
**A.** 1.0%

**Q.** And the “CD184 (% by FACS)” value [1, 10]?
**A.** 95.2%

**Q.** What about the “definitive endoderm positive cells (CXCR4 positive, CD9 positive)” value ([1]; MCX at concentrations less than 2 μM) of the same molecule?
**A.** progressively fewer definitive endoderm positive cells

**Q.** What about the “effect on cell viability” value [2] of the same molecule?
**A.** decreased cell viability

**Q.** And the “increase in G0/G1 cells” value [3, 11]?
**A.** 54%

**Q.** What about the “reduction in the incorporation of EdU compared to the other four treatment conditions” value [3, 11] of the same molecule?
**A.** ~40%

**Q.** What about the “magnitude of induction of FGF4, FOXA2 and SOX17 compared to the other four conditions” value ([4]; 24 hours after the initiation of differentiation) of the same molecule?
**A.** much lower

**Q.** What about the “expression of genes for pluripotency (NANOG and POU5F1/OCT4) versus starting cell population or other four conditions” value ([4]; by 24 hours) of the same molecule?
**A.** dramatically reduced

**Q.** What about the “definitive endoderm by gene expression versus 20 ng/ml WNT-3A plus 100 ng/ml Activin A on day one” value ([4]; end of definitive endoderm formation) of the same molecule?
**A.** comparable

**Q.** What about the “induction of genes T (brachyury), GATA4 and CDX2 versus WNT-3A+Activin A or the other three conditions” value ([4]; first 24 hours of differentiation) of the same molecule?
**A.** substantially higher

**Q.** “GDF8: TGF-β family member, GDF8 (Catalog #120-00, Peprotech)” was tested. Which “cells in G0/G1 of the cell cycle” value [3] did it give?
**A.** 48.5%

**Q.** What about the “percentage of cells with EdU incorporation (mean of GDF8, WNT-3A, WNT-3A+Activin A and neat medium)” value [3] of the same molecule?
**A.** 48.1%

**Q.** What about the “average decrease in the number of cells in G0/G1 (GDF8, WNT-3A, WNT-3A+Activin A and neat medium)” value [3] of the same molecule?
**A.** 13%

B1: WNT-3A: WNT-3A (Catalog #1324-WN-002, R&D Systems) (protein, UniProt P56704 19-352, looked up)
Protein Wnt-3a: SYPIWWSLAVGPQYSSLGSQPILCASIPGLVPKQLRFCRNYVEIMPSVAEGIKIGIQECQHQFRGRRWNCTTVHDSLAIFGPVLDKATRESAFVHAIASAGVAFAVTRSCAEGTAAICGCSSRHQGSPGKGWKWGGCSEDIEFGGMVSREFADARENRPDARSAMNRHNNEAGRQAIASHMHLKCKCHGLSGSCEVKTCWWSQPDFRAIGDFLKDKYDSASEMVVEKHRESRGWVETLRPRYTYFKVPTERDLVYYEASPNFCEPNPETGSFGTRDRTCNVSSHGIDGCDLLCCGRGHNARAERRREKCRCVFHWCCYVSCQECTRVYDVHTCK
**Q.** Which results are given for B1?
**A.** cells in G0/G1 of the cell cycle [3]: 55.8%; percentage of cells with EdU incorporation (mean of GDF8, WNT-3A, WNT-3A+Activin A and neat medium) [3]: 48.1%; average decrease in the number of cells in G0/G1 (GDF8, WNT-3A, WNT-3A+Activin A and neat medium) [3]: 13%
